# Residues, ends and D or L forms follow the SMILES beside them.
# Test system: E. coli O157:H7
# Format: cell-based, Escherichia coli
# Settings: screening-stage peptides tested at 1, 6, 12 and 25 μg/mL
# Excerpt: In the present invention we used the statistical thermodynamics algorithm TANGO to identify aggregation prone regions (APR) in the proteome of E. coli strain O157:H7. This yielded 3535 sequences of at least 6 amino acids in length and a TANGO score of at least 20%. In order to generate efficient aggregation seeds, we employed a previously devised tandem repeat design ^19, 21, in which the APRs are repeated once and separated by a linker. Given the length limitation on solid phase peptide synthesis with regard to yield and purity, we focused on the 1542 APRs with a length of 7 amino acids. In order to maximize the potential of these peptides to induce aggregation in E. coli, we ranked the APRs by their frequency of occurrence throughout the E. coli proteome, allowing a single amino acid mismatch, and selected the first 75 most frequently occurring sequences from this list (Table 4). In the design pattern, and in order to increase the colloidal stability of these aggregating peptides, the APRs are flanked by aggregation gatekeepers, a class of residues that was previously shown to reduce aggregation kinetics^22-24. […] To generate the tandem we used a single proline residue as a linker between the gatekeeper-flanked APRs. In addition to the 75 peptides generated in this fashion, we added 2 variants of each of the first 25 peptides in the list by randomly mutating one residue in the first APR repeat to arginine to further modulate the aggregation propensity of the peptides (Table 4). All the peptides were generated using solid phase synthesis at 200 nmole scale and dissolved in DMSO to a theoretical stock concentration of 2 mM (assuming 100% synthesis efficiency). Peptide activity on the growth of E. coli O157:H7 was measured at dilutions of the peptide corresponding to concentrations of 1, 6, 12 and 25 μg/mL. […] The Matthews Correlations Coefficient (MCC) with the measured activity was 0.1 at 12 μg/mL and 0.24 at 25 μg/mL.
row,SMILES,E. coli O157 (apparent MIC in screen) [µg/mL]
1,CC(C)C[C@H](NC(=O)[C@H](C)NC(=O)[C@@H](N)CCCNC(=N)N)C(=O)N[C@@H](CC(C)C)C(=O)N[C@H](C(=O)N[C@@H](C)C(=O)N[C@@H](CCCNC(=N)N)C(=O)N[C@@H](CC(C)C)C(=O)N[C@@H](CCCNC(=N)N)C(=O)N[C@@H](CCCNC(=N)N)C(=O)N1CCC[C@H]1C(=O)N[C@@H](CCCNC(=N)N)C(=O)N[C@@H](C)C(=O)N[C@@H](CC(C)C)C(=O)N[C@@H](CC(C)C)C(=O)N[C@H](C(=O)N[C@@H](C)C(=O)N[C@H](C(=O)N[C@@H](CC(C)C)C(=O)N[C@@H](CCCNC(=N)N)C(=O)N[C@@H](CCCNC(=N)N)C(=O)O)C(C)C)[C@@H](C)O)[C@@H](C)O [Peptide P91] (H-RALLTARLRRPRALLTAVLRR-OH; N-terminus and C-terminus assumed),25
2,CC(C)C[C@H](NC(=O)[C@H](C)NC(=O)[C@H](CC(C)C)NC(=O)[C@H](CC(C)C)NC(=O)[C@H](CC(C)C)NC(=O)[C@H](CCCNC(=N)N)NC(=O)[C@@H]1CCCN1C(=O)[C@H](CCCNC(=N)N)NC(=O)[C@H](CCCNC(=N)N)NC(=O)[C@H](CO)NC(=O)[C@H](CCCNC(=N)N)NC(=O)[C@H](CC(C)C)NC(=O)[C@H](C)NC(=O)[C@H](CC(C)C)NC(=O)[C@H](CC(C)C)NC(=O)[C@H](CC(C)C)NC(=O)[C@@H](N)CCCNC(=N)N)C(=O)N[C@@H](CC(C)C)C(=O)N[C@@H](CO)C(=O)N[C@@H](CCCNC(=N)N)C(=O)N[C@@H](CCCNC(=N)N)C(=O)O [Peptide P103] (H-RLLLALRSRRPRLLLALLSRR-OH; N-terminus and C-terminus assumed),25
3,CC(C)C[C@H](NC(=O)CNC(=O)[C@H](CCCNC(=N)N)NC(=O)[C@@H]1CCCN1C(=O)[C@H](CCCNC(=N)N)NC(=O)[C@H](CCCNC(=N)N)NC(=O)[C@H](CCC(N)=O)NC(=O)[C@H](CC(C)C)NC(=O)[C@H](C)NC(=O)[C@H](CC(C)C)NC(=O)[C@H](CCCNC(=N)N)NC(=O)[C@H](CC(C)C)NC(=O)CNC(=O)[C@@H](N)CCCNC(=N)N)C(=O)N[C@@H](CC(C)C)C(=O)N[C@@H](CC(C)C)C(=O)N[C@@H](C)C(=O)N[C@@H](CC(C)C)C(=O)N[C@@H](CCC(N)=O)C(=O)N[C@@H](CCCNC(=N)N)C(=O)N[C@@H](CCCNC(=N)N)C(=O)O [Peptide P99] (H-RGLRLALQRRPRGLLLALQRR-OH; N-terminus and C-terminus assumed),25
4,CC(C)C[C@H](NC(=O)CNC(=O)[C@H](CC(C)C)NC(=O)[C@@H](NC(=O)[C@H](C)NC(=O)[C@H](CCCNC(=N)N)NC(=O)[C@@H]1CCCN1C(=O)[C@H](CCCNC(=N)N)NC(=O)[C@H](CCCNC(=N)N)NC(=O)[C@H](C)NC(=O)[C@H](CC(C)C)NC(=O)[C@H](CC(C)C)NC(=O)[C@H](CCCNC(=N)N)NC(=O)[C@H](CC(C)C)NC(=O)[C@@H](NC(=O)[C@H](C)NC(=O)[C@@H](N)CCCNC(=N)N)C(C)C)C(C)C)C(=O)N[C@@H](CC(C)C)C(=O)N[C@@H](C)C(=O)N[C@@H](CCCNC(=N)N)C(=O)N[C@@H](CCCNC(=N)N)C(=O)O [Peptide P113] (H-RAVLRLLARRPRAVLGLLARR-OH; N-terminus and C-terminus assumed),25
5,CC(C)C[C@H](NC(=O)[C@H](C)NC(=O)[C@H](CCCNC(=N)N)NC(=O)[C@@H]1CCCN1C(=O)[C@H](CCCNC(=N)N)NC(=O)[C@H](CCCNC(=N)N)NC(=O)[C@H](CC(C)C)NC(=O)[C@H](CC(C)C)NC(=O)[C@H](C)NC(=O)[C@@H](NC(=O)[C@H](CCCNC(=N)N)NC(=O)[C@H](CC(C)C)NC(=O)[C@H](C)NC(=O)[C@@H](N)CCCNC(=N)N)C(C)C)C(=O)N[C@@H](C)C(=O)N[C@H](C(=O)N[C@@H](C)C(=O)N[C@@H](CC(C)C)C(=O)N[C@@H](CC(C)C)C(=O)N[C@@H](CCCNC(=N)N)C(=O)N[C@@H](CCCNC(=N)N)C(=O)O)C(C)C [Peptide P87] (H-RALRVALLRRPRALAVALLRR-OH; N-terminus and C-terminus assumed),25
6,CC(C)C[C@H](NC(=O)[C@H](C)NC(=O)[C@H](CC(C)C)NC(=O)[C@@H](NC(=O)[C@H](C)NC(=O)[C@H](CO)NC(=O)[C@H](CCCNC(=N)N)NC(=O)[C@@H]1CCCN1C(=O)[C@H](CCCNC(=N)N)NC(=O)[C@H](CCCNC(=N)N)NC(=O)[C@H](CC(C)C)NC(=O)[C@H](CC(C)C)NC(=O)[C@H](C)NC(=O)[C@H](CCCNC(=N)N)NC(=O)[C@@H](NC(=O)[C@H](C)NC(=O)[C@H](CO)NC(=O)[C@@H](N)CCCNC(=N)N)C(C)C)C(C)C)C(=O)N[C@@H](CC(C)C)C(=O)N[C@@H](CCCNC(=N)N)C(=O)N[C@@H](CCCNC(=N)N)C(=O)O [Peptide P118] (H-RSAVRALLRRPRSAVLALLRR-OH; N-terminus and C-terminus assumed),25
7,CC[C@H](C)[C@H](NC(=O)CNC(=O)[C@H](CCCNC(=N)N)NC(=O)[C@H](CC(C)C)NC(=O)[C@@H](N)CCCNC(=N)N)C(=O)N[C@@H](C)C(=O)N[C@@H](CC(C)C)C(=O)NCC(=O)N[C@@H](CCCNC(=N)N)C(=O)N[C@@H](CCCNC(=N)N)C(=O)N1CCC[C@H]1C(=O)N[C@@H](CCCNC(=N)N)C(=O)N[C@@H](CC(C)C)C(=O)N[C@H](C(=O)NCC(=O)N[C@H](C(=O)N[C@@H](C)C(=O)N[C@@H](CC(C)C)C(=O)NCC(=O)N[C@@H](CCCNC(=N)N)C(=O)N[C@@H](CCCNC(=N)N)C(=O)O)[C@@H](C)CC)[C@@H](C)CC [Peptide P90] (H-RLRGIALGRRPRLIGIALGRR-OH; N-terminus and C-terminus assumed),25
8,CC(C)C[C@H](NC(=O)[C@H](C)NC(=O)[C@@H](NC(=O)[C@H](CC(C)C)NC(=O)[C@H](CCC(N)=O)NC(=O)[C@H](CCCNC(=N)N)NC(=O)[C@@H]1CCCN1C(=O)[C@H](CCCNC(=N)N)NC(=O)[C@H](CCCNC(=N)N)NC(=O)[C@@H](NC(=O)[C@H](CC(C)C)NC(=O)[C@H](CCCNC(=N)N)NC(=O)[C@H](C)NC(=O)[C@@H](NC(=O)[C@H](CC(C)C)NC(=O)[C@H](CCC(N)=O)NC(=O)[C@@H](N)CCCNC(=N)N)C(C)C)C(C)C)C(C)C)C(=O)N[C@@H](CC(C)C)C(=O)N[C@H](C(=O)N[C@@H](CCCNC(=N)N)C(=O)N[C@@H](CCCNC(=N)N)C(=O)O)C(C)C [Peptide P92] (H-RQLVARLVRRPRQLVALLVRR-OH; N-terminus and C-terminus assumed),6
9,CC(C)C[C@H](NC(=O)[C@H](C)NC(=O)[C@@H](NC(=O)[C@H](CC(C)C)NC(=O)[C@H](CCC(N)=O)NC(=O)[C@H](CCCNC(=N)N)NC(=O)[C@@H]1CCCN1C(=O)[C@H](CCCNC(=N)N)NC(=O)[C@H](CCCNC(=N)N)NC(=O)[C@@H](NC(=O)[C@H](CCCNC(=N)N)NC(=O)[C@H](CC(C)C)NC(=O)[C@H](C)NC(=O)[C@@H](NC(=O)[C@H](CC(C)C)NC(=O)[C@H](CCC(N)=O)NC(=O)[C@@H](N)CCCNC(=N)N)C(C)C)C(C)C)C(C)C)C(=O)N[C@@H](CC(C)C)C(=O)N[C@H](C(=O)N[C@@H](CCCNC(=N)N)C(=O)N[C@@H](CCCNC(=N)N)C(=O)O)C(C)C [Peptide P117] (H-RQLVALRVRRPRQLVALLVRR-OH; N-terminus and C-terminus assumed),25
